Assay results from patent publication US9321790B2, “Pyrimidinone derivatives as antimalarial agents” (SANOFI, priority 2012, dated 2016).

Legend:
[1] = system: Plasmodium falciparum (strain NF54); test: Antimalarial activity test: growth of Plasmodium falciparum in infected human erythrocytes, 3H-hypoxanthine incorporation; type: cell-based; conditions: strain NF54 sensitive to chloroquine, 72 h total incubation
How it was run: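 Chloroquine-sensitive NF54 parasites in human erythrocytes (1.25% hematocrit, 0.15% parasitemia) were grown in hypoxanthine-free RPMI 1640 with HEPES and Albumax II, with compound in twofold serial dilution, at 37 °C under 93% N2/4% CO2/3% O2. After 48 h, 3H-hypoxanthine (0.5 μCi) was added for 24 h. Scintillation counts versus drug-free control gave IC50.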

[2] = target: human PI3Kα (Homo sapiens (Human), UniProt P42336); test: Human PI3Kα activity test (luciferin/luciferase ATP consumption, KinaseGlo); type: biochemical; conditions: PI3Kα (p110α/p85α), 50 μM PIP2, 2 μM ATP, 90 minutes; read-out: IC50 Human PI3Kα
Procedure: The test uses a luciferin/luciferase system to measure the concentration of ATP and its consumption during the enzymatic reaction.
After 90 minutes, the reaction is quenched by adding 20 μl/well of KinaseGlo reagent (Promega V6713). After 10 minutes in the dark, the luminescence is read using a PHERAStar microplate reader (reading at 0.8 sec/well).

[3] = Plasmodium falciparum, Erythrocyte

human PI3Kα, sequence (P42336 whole entry): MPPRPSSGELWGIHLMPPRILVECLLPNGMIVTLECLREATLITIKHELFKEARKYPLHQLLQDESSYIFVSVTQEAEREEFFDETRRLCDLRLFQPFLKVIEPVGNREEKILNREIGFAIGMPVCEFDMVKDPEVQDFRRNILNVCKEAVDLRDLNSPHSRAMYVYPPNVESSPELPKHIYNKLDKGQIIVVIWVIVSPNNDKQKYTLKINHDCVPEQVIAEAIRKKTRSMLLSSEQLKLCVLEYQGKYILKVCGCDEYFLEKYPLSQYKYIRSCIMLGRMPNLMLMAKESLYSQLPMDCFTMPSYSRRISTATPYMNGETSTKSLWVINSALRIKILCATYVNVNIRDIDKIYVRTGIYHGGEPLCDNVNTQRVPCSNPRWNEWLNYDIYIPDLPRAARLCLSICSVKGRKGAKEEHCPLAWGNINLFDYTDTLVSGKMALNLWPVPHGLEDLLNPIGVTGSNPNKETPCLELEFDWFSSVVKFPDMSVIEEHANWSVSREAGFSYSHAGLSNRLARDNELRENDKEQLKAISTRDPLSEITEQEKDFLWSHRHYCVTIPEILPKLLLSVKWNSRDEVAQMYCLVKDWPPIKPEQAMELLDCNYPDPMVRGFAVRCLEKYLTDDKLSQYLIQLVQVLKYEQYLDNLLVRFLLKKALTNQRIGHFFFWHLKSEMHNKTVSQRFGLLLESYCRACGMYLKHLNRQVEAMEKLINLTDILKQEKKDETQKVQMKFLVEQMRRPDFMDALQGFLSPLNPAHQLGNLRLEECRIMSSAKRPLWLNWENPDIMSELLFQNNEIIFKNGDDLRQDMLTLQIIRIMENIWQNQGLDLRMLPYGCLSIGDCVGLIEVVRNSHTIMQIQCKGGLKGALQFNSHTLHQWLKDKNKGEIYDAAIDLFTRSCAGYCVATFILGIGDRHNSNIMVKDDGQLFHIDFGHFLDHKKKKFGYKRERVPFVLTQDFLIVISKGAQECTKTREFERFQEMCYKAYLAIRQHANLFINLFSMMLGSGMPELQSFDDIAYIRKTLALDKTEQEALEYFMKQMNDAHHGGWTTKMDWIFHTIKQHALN
human PI3Kα, sequence (P27986 whole entry partner): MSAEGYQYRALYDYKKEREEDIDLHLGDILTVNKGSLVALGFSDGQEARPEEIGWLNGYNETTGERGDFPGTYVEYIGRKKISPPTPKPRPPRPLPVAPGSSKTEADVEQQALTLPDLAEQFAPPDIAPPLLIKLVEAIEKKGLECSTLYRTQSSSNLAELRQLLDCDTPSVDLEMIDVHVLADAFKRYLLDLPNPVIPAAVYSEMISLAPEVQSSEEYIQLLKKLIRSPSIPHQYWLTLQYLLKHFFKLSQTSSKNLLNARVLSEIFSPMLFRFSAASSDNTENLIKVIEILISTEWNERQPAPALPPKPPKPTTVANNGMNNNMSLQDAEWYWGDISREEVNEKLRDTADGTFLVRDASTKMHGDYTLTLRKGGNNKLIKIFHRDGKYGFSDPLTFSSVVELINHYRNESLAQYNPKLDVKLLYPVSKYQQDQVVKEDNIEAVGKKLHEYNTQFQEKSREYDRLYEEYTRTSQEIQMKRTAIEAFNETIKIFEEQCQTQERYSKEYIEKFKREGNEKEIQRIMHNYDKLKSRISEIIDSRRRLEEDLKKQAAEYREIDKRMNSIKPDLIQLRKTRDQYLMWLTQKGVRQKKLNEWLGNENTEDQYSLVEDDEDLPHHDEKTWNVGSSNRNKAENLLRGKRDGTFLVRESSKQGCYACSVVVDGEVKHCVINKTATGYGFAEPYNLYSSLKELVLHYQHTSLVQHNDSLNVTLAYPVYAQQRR

IC50 [1, 3] | IC50 [2] | IC50 [1] | Compound
150 nM | > 7200 nM | – | Cc1cncc(C(=O)CN2c3nc(N4C[C@@H]5C[C@H]4CO5)cc(=O)n3CC[C@H]2C(F)(F)F)c1 [Compound 15, (8S)-9-[2-(5-methylpyrid-3-yl)-2-oxoethyl]-2-(1S,4S)-2-oxa-5-azabicyclo[2.2.1]hept-5-yl-8-trifluoromethyl-6,7,8,9-tetrahydropyrimido[1,2-a]pyrimidin-4-one]
5 nM | 2500 nM | – | O=c1cc(N2C[C@@H]3C[C@H]2CO3)nc2n1CC[C@@H](C(F)(F)F)N2CCC(O)(C1CC1)C1CC1 [Compound 102, (8S)-9-(3,3-Dicyclopropyl-3-hydroxypropyl)-2-(1S,4S)-2-oxa-5-azabicyclo[2.2.1]hept-5-yl-8-trifluoromethyl-6,7,8,9-tetrahydropyrimido[1,2-a]pyrimidin-4-one]
– | > 10000 nM | 19 nM | O=C(CN1c2nc(N3C[C@@H]4C[C@H]3CO4)cc(=O)n2CC[C@H]1C(F)(F)F)c1cccnc1C(F)(F)F [Compound 60, (8S)-2-(1S,4S)-2-Oxa-5-azabicyclo[2.2.1]hept-5-yl-9-[2-oxo-2-(2-trifluoromethylpyrid-3-yl)ethyl]-8-trifluoromethyl-6,7,8,9-tetrahydropyrimido[1,2-a]pyrimidin-4-one]
10 nM | 2000 nM | – | Cc1ncsc1CCN1c2nc(N3C[C@@H]4C[C@H]3CO4)cc(=O)n2C[C@@]1(C)C(F)(F)F [Compound 26, 2-methyl-1-[2-(4-methylthiazol-5-yl)ethyl]-7-(1S,4S)-2-oxa-5-azabicyclo[2.2.1]hept-5-yl-2-((S)-trifluoromethyl)-2,3-dihydro-1H-imidazo[1,2-a]pyrimidin-5-one]
3 nM | 590 nM | – | O=C(COc1ccc(CCN2c3nc(N4C[C@@H]5C[C@H]4CO5)cc(=O)n3CC[C@H]2C(F)(F)F)cc1)N1CCOCC1 [Compound 115, (S)-9-{2-[4-(2-Morpholin-4-yl-2-oxoethoxy)phenyl]ethyl}-2-(1S,4S)-2-oxa-5-azabicyclo[2.2.1]hept-5-yl-8-trifluoromethyl-6,7,8,9-tetrahydropyrimido[1,2-a]pyrimidin-4-one]
65 nM | > 10000 nM | – | CCOC(=O)Nc1ccc(C(=O)CN2c3nc(N4C[C@@H]5C[C@H]4CO5)cc(=O)n3CC[C@H]2C(F)(F)F)cn1 [Compound 57, ethyl {5-[2-((S)8-(1S,4S)-2-oxa-5-azabicyclo[2.2.]hept-5-yl-6-oxo-2-trifluoromethyl-3,4-dihydro-2H,6H-pyrimido[1,2-a]pyrimidin-1-yl)acetyl]pyrid-2-yl}carbamate]
87 nM | > 10000 nM | – | Cc1nc(CN2c3nc(N4C[C@@H]5C[C@H]4CO5)cc(=O)n3CC[C@H]2C(F)(F)F)no1 [Compound 59, (8S)-9-(5-Methyl-[1,2,4]oxadiazol-3-ylmethyl)-2-(1S,4S)-2-oxa-5-azabicyclo[2.2.1]hept-5-yl-8-trifluoromethyl-6,7,8,9-tetrahydropyrimido[1,2-a]pyrimidin-4-one]
40 nM | ≥ 10000 nM | – | C[C@@]1(C(F)(F)F)Cn2c(nc(N3C[C@@H]4C[C@H]3CO4)cc2=O)N1CC(=O)c1ccc(N)nc1 [Compound 11, (S)-1-[2-(6-Aminopyrid-3-yl)-2-oxoethyl]-2-methyl-7-(1S,4S)-2-oxa-5-azabicyclo[2.2.1]hept-5-yl-2-trifluoromethyl-2,3-dihydro-1H-imidazo[1,2-a]pyrimidin-5-one]
430 nM | > 10000 nM | – | O=C(CN1c2nc(N3C[C@@H]4C[C@H]3CO4)cc(=O)n2CC[C@H]1C(F)(F)F)c1ccc2nccn2c1 [Compound 113, (8S)-9-(2-Imidazo[1,2-a]pyrid-6-yl-2-oxoethyl)-2-(1S,4S)-2-oxa-5-azabicyclo[2.2.1]hept-5-yl-8-trifluoromethyl-6,7,8,9-tetrahydropyrimido[1,2-a]pyrimidin-4-one]
11 nM | > 10000 nM | – | O=C(CN1c2nc(N3C[C@@H]4C[C@H]3CO4)cc(=O)n2CC[C@H]1C(F)(F)F)C1CCOCC1 [Compound 62, (8S)-2-(1S,4S)-2-Oxa-5-azabicyclo[2.2.1]hept-5-yl-9-[2-oxo-2-(tetrahydropyran-4-yl)ethyl]-8-trifluoromethyl-6,7,8,9-tetrahydropyrimido[1,2-a]pyrimidin-4-one]
93 nM | 950 nM | – | COc1ccc(CCN2c3nc(N4CC5CCC(C4)O5)cc(=O)n3C[C@@]2(C)C(F)(F)F)cc1 [Compound 76, (S)-1-[2-(4-Methoxyphenyl)ethyl]-2-methyl-7-(8-oxa-3-azabicyclo[3.2.1]oct-3-yl)-2-trifluoromethyl-2,3-dihydro-1H-imidazo[1,2-a]pyrimidin-5-one]
9 nM | 340 nM | – | O=c1cc(N2CC3CCC(C2)O3)nc2n1CC[C@@H](C(F)(F)F)N2C[C@@H](O)c1cc2ccccc2s1 [Compound 82, (8S)-9-((R)-2-Benzo[b]thiophen-2-yl-2-hydroxyethyl)-2-(8-oxa-3-azabicyclo[3.2.1]oct-3-yl)-8-trifluoromethyl-6,7,8,9-tetrahydropyrimido[1,2-a]pyrimidin-4-one]
112 nM | > 10000 nM | – | COc1ccc(C(=O)CN2c3nc(N4C[C@@H]5C[C@H]4CO5)cc(=O)n3CC[C@H]2C(F)(F)F)cn1 [Compound 45, (8S)-9-[2-(6-methoxypyrid-3-yl)-2-oxoethyl]-2-(1S,4S)-2-oxa-5-azabicyclo[2.2.1]hept-5-yl-8-trifluoromethyl-6,7,8,9-tetrahydropyrimido[1,2-a]pyrimidin-4-one]
24 nM | > 10000 nM | – | Cc1ncccc1C(=O)CN1c2nc(N3C[C@@H]4C[C@H]3CO4)cc(=O)n2CC[C@H]1C(F)(F)F [Compound 19, (8S)-9-[2-(2-methylpyrid-3-yl)-2-oxoethyl]-2-(1S,4S)-2-oxa-5-azabicyclo[2.2.1]hept-5-yl-8-trifluoromethyl-6,7,8,9-tetrahydropyrimido[1,2-a]pyrimidin-4-one]
360 nM | 250 nM | – | CN(C)CCCOc1ccc(CCN2c3nc(N4CC5CCC(C4)O5)cc(=O)n3C[C@@]2(C)C(F)(F)F)cc1 [Compound 78, (S)-1-{2-[4-(3-Dimethylaminopropoxyl)phenyl]ethyl}-2-methyl-7-(8-oxa-3-azabicyclo[3.2.1]oct-3-yl)-2-trifluoromethyl-2,3-dihydro-1H-imidazo[1,2-a]pyrimidin-5-one]
– | > 10000 nM | 200 nM | CON(C)C(=O)CN1c2nc(N3C[C@@H]4C[C@H]3CO4)cc(=O)n2CC[C@H]1C(F)(F)F [Compound 112, N-Methoxy-N-methyl-2-((S)-8-(1S,4S)-2-oxa-5-azabicyclo[2.2.1]hept-5-yl-6-oxo-2-trifluoromethyl-3,4-dihydro-2H,6H-pyrimido[1,2-a]pyrimidin-1-yl)acetamide]
10 nM | ≥ 10000 nM | – | O=C(CN1c2nc(N3C[C@@H]4C[C@H]3CO4)cc(=O)n2CC[C@H]1C(F)(F)F)c1cccnc1 [Compound 7, (8S)-2-(1S,4S)-2-oxa-5-azabicyclo[2.2.1]hept-5-yl-9-(2-oxo-2-pyrid-3-ylethyl)-8-trifluoromethyl-6,7,8,9-tetrahydropyrimido[1,2-a]pyrimidin-4-one]
68 nM | 820 nM | – | CN(C)CCOc1ccc(CCN2c3nc(N4CC5CCC(C4)O5)cc(=O)n3C[C@@]2(C)C(F)(F)F)cc1 [Compound 74, (S)-1-{2-[4-(2-dimethylaminoethoxy)phenyl]ethyl}-2-methyl-7-(8-oxa-3-azabicyclo[3.2.1]oct-3-yl)-2-trifluoromethyl-2,3-dihydro-1H-imidazo[1,2-a]pyrimidin-5-one]
12 nM | 1000 nM | – | CN(C)C(=O)COc1ccc(CCN2c3nc(N4CC5CCC(C4)O5)cc(=O)n3C[C@@]2(C)C(F)(F)F)cc1 [Compound 70, N, N-dimethyl-2-(4-{2-[(S)-2-methyl-7-(8-oxa-3-azabicyclo[3.2.1]oct-3-yl)-5-oxo-2-trifluoromethyl-2,3-dihydro-5H-imidazo[1,2-a]pyrimidin-1-yl]ethyl}phenoxy)acetamide]
2 nM | 2400 nM | – | O=CN1CCC(CCN2c3nc(N4C[C@@H]5C[C@H]4CO5)cc(=O)n3CC[C@H]2C(F)(F)F)CC1 [Compound 90, 4-[2-((2S)-8-(1S,4S)-2-oxa-5-azabicyclo[2.2.1]hept-5-yl-6-oxo-2-trifluoromethyl-3,4-dihydro-2H,6H-pyrimido[1,2-a]pyrimidin-1-yl)ethyl]piperidine-1-carbaldehyde]
130 nM | > 10000 nM | – | O=C(CN1c2nc(N3C[C@@H]4C[C@H]3CO4)cc(=O)n2CC[C@H]1C(F)(F)F)c1cnc(OCC2CC2)nc1 [Compound 52, (8S)-9-[2-(2-Cyclopropylmethoxypyrimidin-5-yl)-2-oxoethyl]-2-(1S,4S)-2-oxa-5-azabicyclo[2.2.1]hept-5-yl-8-trifluoromethyl-6,7,8,9-tetrahydropyrimido[1,2-a]pyrimidin-4-one]
12 nM | 930 nM | – | O=c1cc(N2C[C@@H]3C[C@H]2CO3)nc2n1CC[C@@H](C(F)(F)F)N2CC1(O)CC1 [Compound 104, (8S)-9-(1-hydroxycyclopropylmethyl)-2-(1S,4S)-2-oxa-5-azabicyclo[2.2.1]hept-5-yl-8-trifluoromethyl-6,7,8,9-tetrahydropyrimido[1,2-a]pyrimidin-4-one]
– | 440 nM | 30 nM | O=c1cc(N2C[C@@H]3C[C@H]2CO3)nc2n1CC[C@@H](C(F)(F)F)N2CCC(O)(C(F)(F)F)C(F)(F)F [Compound 97, (8S)-2-(1S,4S)-2-Oxa-5-azabicyclo[2.2.1]hept-5-yl-9-(4,4,4-trifluoro-3-hydroxy-3-trifluoromethylbutyl)-8-trifluoromethyl-6,7,8,9-tetrahydropyrimido[1,2-a]pyrimidin-4-one]
